Source: BindingDB's records for PubMed 38359536 (China Pharmaceutical University)

Target: Protein arginine N-methyltransferase 5 (Homo sapiens, UniProt O14744)
Experiment: Inhibition of human PRMT5 expressed in HEK293 cells coexpressing MEP50 incubated for 60 mins by chemiluminescent assay

Protein arginine N-methyltransferase 5, sequence (O14744 whole entry): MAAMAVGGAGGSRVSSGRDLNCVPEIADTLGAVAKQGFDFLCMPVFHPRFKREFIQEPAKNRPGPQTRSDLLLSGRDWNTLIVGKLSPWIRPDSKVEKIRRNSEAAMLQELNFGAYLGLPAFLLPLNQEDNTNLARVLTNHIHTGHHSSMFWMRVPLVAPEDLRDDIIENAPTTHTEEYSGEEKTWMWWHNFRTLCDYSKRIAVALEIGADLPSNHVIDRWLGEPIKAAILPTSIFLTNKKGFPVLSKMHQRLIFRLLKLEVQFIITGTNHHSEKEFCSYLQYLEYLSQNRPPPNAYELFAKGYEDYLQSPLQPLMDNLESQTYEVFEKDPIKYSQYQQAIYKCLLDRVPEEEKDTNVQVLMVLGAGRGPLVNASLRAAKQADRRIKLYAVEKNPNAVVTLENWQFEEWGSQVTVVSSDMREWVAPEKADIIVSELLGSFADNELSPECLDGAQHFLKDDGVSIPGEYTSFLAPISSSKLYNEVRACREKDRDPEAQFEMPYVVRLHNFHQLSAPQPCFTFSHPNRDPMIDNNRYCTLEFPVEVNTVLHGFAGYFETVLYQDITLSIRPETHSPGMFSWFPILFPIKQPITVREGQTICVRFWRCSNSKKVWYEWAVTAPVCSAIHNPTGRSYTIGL

Q: For `CC(=O)N1CCC(Nc2cc(C(=O)NC[C@H](O)CN3CCc4c([nH]c5ccccc45)C3)ncn2)CC1` [(S)-6-((1-acetylpiperidin-4-yl)amino)-N-(2-hydroxy-3-(1,3,4,9-tetrahydro-2H-pyrido [3,4-b]indol-2-yl)propyl)pyrimidine-4-carboxamide], which IC50 is on record?
A: 10 nM
